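Five compound concentrations were applied to cells in 96-well plates for 48 hours; endpoints were derived by simple linear interpolation of the resulting dose-response curve. Abbreviation: GI50, concentration required for 50% inhibition of growth.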 Active and inactive are the calls of the source. No stated cut-off is given here; in the data, active = GI50 up to about 1.1 µM and inactive = higher.
Experiments:
Experiment in all cases: DTP human tumour cell line panel, 48 h
SR = system: SR
SF-295 = system: SF-295
TK-10 = system: TK-10
HCT-15 = system: HCT-15
RXF 393 = system: RXF 393
U-251 = system: U-251
SW-620 = system: SW-620
KM12 = system: KM12
IGROV-1 = system: IGROV-1
MDA-MB-435 = system: MDA-MB-435
SF-268 = system: SF-268
HCC 2998 = system: HCC 2998
OVCAR-3 = system: OVCAR-3
CCRF-CEM = system: CCRF-CEM
HOP-92 = system: HOP-92

Measured: GI50

O=C1c2ccccc2-c2ccc(O)cc21
inactive: SR 12 µM | SF-295 22.9 µM | TK-10 24.5 µM | RXF 393 10.4 µM | U-251 26.7 µM | SW-620 42.3 µM | KM12 16.8 µM | IGROV-1 18.6 µM | MDA-MB-435 20.2 µM | SF-268 19.1 µM
21.6 µM: HCT-15

COC(=O)CP1(=O)OC2C(C3CCC2(C)C3(C)C)N1c1cc(C(F)(F)F)cc(C(F)(F)F)c1 (centres undefined)
inactive: SR 24.8 µM | SF-295 19.7 µM | TK-10 24.7 µM | HCC 2998 22.9 µM | U-251 26.1 µM | SW-620 24.1 µM | KM12 17.1 µM | IGROV-1 45.7 µM | OVCAR-3 15.2 µM | MDA-MB-435 22.1 µM | SF-268 23 µM
24.4 µM: HCT-15

C=CCC1C2CCC(O[Si](C(C)C)(C(C)C)C(C)C)(C(C(=O)OC)C2)C1O (centres undefined)
inactive: SR 17.6 µM | SF-295 23.4 µM | CCRF-CEM 60.8 µM | TK-10 14.4 µM | U-251 60.3 µM | SW-620 > 100 µM | KM12 54.5 µM | IGROV-1 69.2 µM | OVCAR-3 > 100 µM | HOP-92 > 100 µM | MDA-MB-435 53.7 µM | SF-268 > 100 µM
77.3 µM: HCT-15

CC(=O)OCC1OC(O[C@@H]2C[C@H]3C(C)(C)[C@@H](OC(C)=O)CC[C@]3(C)[C@H]3CC[C@]45C[C@]4(CC[C@H]5[C@@H](C)C[C@@H](O)[C@H](O)C(C)(C)F)[C@@]32C)C(O)C(O)C1O (some centres undefined)
2.48 µM: HCT-15
inactive: SF-295 24.7 µM | CCRF-CEM 1.21 µM | TK-10 57.9 µM | RXF 393 57.5 µM | HCC 2998 25.9 µM | U-251 18.2 µM | SW-620 1.85 µM | KM12 16.2 µM | IGROV-1 2.06 µM | OVCAR-3 30.1 µM | HOP-92 1.93 µM | MDA-MB-435 8.04 µM | SF-268 1.47 µM

O=C(CN1CCCCC1)Nc1ccc2sc3ccccc3c(=O)c2n1
inactive: SR 21.5 µM | SF-295 15 µM | CCRF-CEM 5.92 µM | TK-10 19.1 µM | HCC 2998 14.8 µM | U-251 16.6 µM | SW-620 5.25 µM | KM12 19.1 µM | IGROV-1 16 µM | OVCAR-3 31.5 µM | HOP-92 15.1 µM | MDA-MB-435 13.1 µM | SF-268 24.2 µM
12.2 µM: HCT-15

CN(Cc1cnc2c(N)nc(N)nc2n1)c1ccc(Cl)cc1
inactive: SR 62.2 µM | SF-295 72.1 µM | CCRF-CEM > 100 µM | TK-10 38.7 µM | RXF 393 17 µM | U-251 > 100 µM | SW-620 > 100 µM | KM12 > 100 µM | IGROV-1 13.7 µM | OVCAR-3 > 100 µM | MDA-MB-435 > 100 µM | SF-268 33.6 µM
71.6 µM: HCT-15

COc1cc([N+](=O)[O-])c(S(=O)(=O)O)cc1N
> 100 µM: HCT-15
inactive: SR > 100 µM | CCRF-CEM > 100 µM | TK-10 > 100 µM | U-251 > 100 µM | SW-620 > 100 µM | KM12 > 100 µM | IGROV-1 > 100 µM | OVCAR-3 > 100 µM | MDA-MB-435 > 100 µM | SF-268 > 100 µM

CC(=O)O[C@H]1CN(S(=O)(=O)c2ccc(C)cc2)C[C@@H]1C1CCCCC1
28.4 µM: HCT-15
inactive: SR 18.6 µM | SF-295 14.4 µM | CCRF-CEM 37.5 µM | TK-10 21.9 µM | HCC 2998 45.6 µM | U-251 29.7 µM | SW-620 26.1 µM | KM12 17.9 µM | IGROV-1 18.8 µM | OVCAR-3 18 µM | HOP-92 23.2 µM | MDA-MB-435 27.9 µM | SF-268 26.7 µM

CCN1CCC(O)(c2ccc([N+](=O)[O-])cc2)C(C(=O)c2ccc([N+](=O)[O-])cc2)C1 (centres undefined)
21.3 µM: HCT-15
inactive: SR 33 µM | SF-295 > 100 µM | CCRF-CEM 11.9 µM | TK-10 17.8 µM | RXF 393 14.4 µM | HCC 2998 17.7 µM | U-251 29.2 µM | SW-620 25.1 µM | KM12 17 µM | IGROV-1 18.2 µM | OVCAR-3 14.8 µM | MDA-MB-435 20.5 µM | SF-268 21 µM

CSc1nn(C)cc2ncnc1-2
> 100 µM: HCT-15
inactive: SR 97.1 µM | SF-295 > 100 µM | CCRF-CEM > 100 µM | TK-10 > 100 µM | RXF 393 > 100 µM | U-251 > 100 µM | SW-620 > 100 µM | KM12 > 100 µM | IGROV-1 > 100 µM | OVCAR-3 > 100 µM | MDA-MB-435 > 100 µM | SF-268 > 100 µM

Nc1ccc(S(=O)(=O)c2ccc(NC(=O)c3cccnc3)cc2)cc1
> 100 µM: HCT-15
inactive: SF-295 > 100 µM | TK-10 > 100 µM | RXF 393 56.4 µM | HCC 2998 > 100 µM | U-251 > 100 µM | SW-620 > 100 µM | KM12 > 100 µM | IGROV-1 > 100 µM | OVCAR-3 > 100 µM | HOP-92 > 100 µM | MDA-MB-435 > 100 µM | SF-268 > 100 µM

CC(C)(C)c1cc(S(=O)(=O)O)c2oc(-c3ccccc3)cc(=O)c2c1
inactive: SR > 100 µM | SF-295 > 100 µM | CCRF-CEM > 100 µM | TK-10 > 100 µM | RXF 393 > 100 µM | HCC 2998 > 100 µM | U-251 > 100 µM | SW-620 > 100 µM | KM12 > 100 µM | IGROV-1 > 100 µM | OVCAR-3 > 100 µM | MDA-MB-435 > 100 µM | SF-268 > 100 µM
> 100 µM: HCT-15

Cc1noc(/N=C2\C=C(O)C(=O)c3ccccc32)c1C
active: U-251 1.03 µM | KM12 0.254 µM | MDA-MB-435 0.126 µM
inactive: SR 18.7 µM | SF-295 11.1 µM | TK-10 > 100 µM | IGROV-1 10 µM | OVCAR-3 4.31 µM | HOP-92 18.8 µM | SF-268 16.9 µM
11.6 µM: HCT-15

CCOC(=O)n1c2ccccc2c2c(O)c(OC)c3c(c21)C(=O)NC3=O
inactive: SR 20.5 µM | SF-295 75.3 µM | CCRF-CEM 13.1 µM | TK-10 52.1 µM | HCC 2998 12.2 µM | U-251 32 µM | SW-620 35.5 µM | KM12 50.8 µM | IGROV-1 14.7 µM | OVCAR-3 22.2 µM | HOP-92 76 µM | MDA-MB-435 60 µM
17.3 µM: HCT-15

CCOC(=O)[C@@]12CCC(C1=O)[C@](C)(O)C[C@@H]2c1ccccc1
25.8 µM: HCT-15
inactive: SF-295 32.7 µM | CCRF-CEM 79.4 µM | TK-10 > 100 µM | RXF 393 29.3 µM | U-251 33.7 µM | SW-620 > 100 µM | KM12 31.8 µM | IGROV-1 35.4 µM | OVCAR-3 28.2 µM | HOP-92 55.1 µM | MDA-MB-435 8.07 µM | SF-268 36.2 µM

COc1cc(/C=C2\C[C@H]3[C@@H]4CC=C5C[C@@H](O)CC[C@]5(C)[C@H]4CC[C@]3(C)[C@H]2O)cc(OC)c1OC
inactive: SF-295 4.84 µM | TK-10 14.1 µM | RXF 393 5.58 µM | HCC 2998 17.3 µM | U-251 11 µM | SW-620 26.2 µM | KM12 10.1 µM | IGROV-1 27.8 µM | OVCAR-3 12.2 µM | HOP-92 12.7 µM | MDA-MB-435 20 µM | SF-268 54.8 µM
7.05 µM: HCT-15

CCCC(=O)Oc1cc(OC(=O)CCC)c2c(C)cc(=O)oc2c1
> 100 µM: HCT-15
inactive: SR 18.5 µM | SF-295 78.7 µM | CCRF-CEM 31.9 µM | TK-10 > 100 µM | U-251 78.3 µM | SW-620 49.9 µM | KM12 32.5 µM | IGROV-1 44.1 µM | OVCAR-3 50 µM | HOP-92 19.6 µM | MDA-MB-435 58.6 µM | SF-268 > 100 µM

N/C(=N\N=C\c1cc2ccccc2s1)c1cnccn1
inactive: SR 6 µM | SF-295 84.5 µM | CCRF-CEM 53.3 µM | TK-10 87.7 µM | RXF 393 > 100 µM | U-251 > 100 µM | SW-620 > 100 µM | KM12 > 100 µM | IGROV-1 > 100 µM | OVCAR-3 > 100 µM | HOP-92 > 100 µM | MDA-MB-435 > 100 µM | SF-268 > 100 µM
> 100 µM: HCT-15

Cc1cccc(C)c1NC(=O)/C(Cc1nc2ccc([N+](=O)[O-])cc2nc1O)=N\NC(N)=O
> 100 µM: HCT-15
inactive: SF-295 > 100 µM | CCRF-CEM 19.6 µM | TK-10 > 100 µM | HCC 2998 > 100 µM | U-251 > 100 µM | SW-620 52.5 µM | KM12 57.5 µM | IGROV-1 89.3 µM | OVCAR-3 > 100 µM | HOP-92 57.8 µM | MDA-MB-435 98.2 µM | SF-268 > 100 µM

NC(=O)CC(N)C(=O)NC(Cc1ccccc1)C(=O)NC(Cc1ccccc1)NC(=O)C(Cc1c[nH]c2ccccc12)C(=O)O (centres undefined)
> 100 µM: HCT-15
inactive: SF-295 > 100 µM | CCRF-CEM > 100 µM | TK-10 > 100 µM | RXF 393 > 100 µM | HCC 2998 > 100 µM | U-251 > 100 µM | SW-620 > 100 µM | KM12 > 100 µM | IGROV-1 > 100 µM | OVCAR-3 > 100 µM | HOP-92 > 100 µM | MDA-MB-435 > 100 µM | SF-268 > 100 µM

O=C1Nc2c(Cl)cccc2/C1=N/Nc1ccccc1[N+](=O)[O-]
inactive: SR 4.68 µM | SF-295 9.02 µM | CCRF-CEM 46 µM | TK-10 11.5 µM | RXF 393 31.9 µM | HCC 2998 32.7 µM | U-251 14.2 µM | SW-620 32.7 µM | KM12 8.89 µM | IGROV-1 1.9 µM | OVCAR-3 44.4 µM | MDA-MB-435 28.2 µM | SF-268 11.4 µM
29.9 µM: HCT-15
